One experiment deals with T1, KDM5B (Homo sapiens, UniProt Q9UGL1).
T1 construct: Full length of KDM5B and KDM4C protein were purchased from Active Motif; purchased Active Motif 31832
The experiment in a line: biochemical. As to the method:
(§1) KDM4C and KDM5B AlphaScreen Assay Material and Method
(§2) Compounds disclosed herein were (and can be) screened using the following assay.
Peptides used in all experiments were purchased from Anaspe. […] Final concentration of KDM5B and KDM4C used in the assay were 0.5 nM and 0.2 nM. Final concentration of peptides for 5B and 4C used in the assay were 3 nM.
(§3) 4 μL of KDM5B or KDM4C protein were added to 384-well OptiPlate by using multiflow, followed by 4 μl of either buffer or compound. Plates were sealed, spun down and incubated at RT for 15 min. 4 μl of biotinylated peptide was added to the plate, the plate was incubated at room temperature for 25 minutes (KDM5B) and 30 minutes (KDM4C) after sealed and spun down. Streptavidin donor beads and acceptor beads were diluted and mixed in the detection buffer with 7.5 mM EDTA, followed by adding 8 μl of acceptor and donor beads mix to the plate, before the plate was sealed and incubated at room temperature for 3 h or overnight at dark. The plate was read on Envision plate reader (PerkinElmer) using Alphascreen protocol. IC50s were calculated in GraphPad Prism 6.

The next experiment deals with T2, KDM4C (Homo sapiens, UniProt Q9H3R0).
T2 construct: Full length of KDM5B and KDM4C protein were purchased from Active Motif; purchased Active Motif 31858
T2 sequence (Q9H3R0 1-1056): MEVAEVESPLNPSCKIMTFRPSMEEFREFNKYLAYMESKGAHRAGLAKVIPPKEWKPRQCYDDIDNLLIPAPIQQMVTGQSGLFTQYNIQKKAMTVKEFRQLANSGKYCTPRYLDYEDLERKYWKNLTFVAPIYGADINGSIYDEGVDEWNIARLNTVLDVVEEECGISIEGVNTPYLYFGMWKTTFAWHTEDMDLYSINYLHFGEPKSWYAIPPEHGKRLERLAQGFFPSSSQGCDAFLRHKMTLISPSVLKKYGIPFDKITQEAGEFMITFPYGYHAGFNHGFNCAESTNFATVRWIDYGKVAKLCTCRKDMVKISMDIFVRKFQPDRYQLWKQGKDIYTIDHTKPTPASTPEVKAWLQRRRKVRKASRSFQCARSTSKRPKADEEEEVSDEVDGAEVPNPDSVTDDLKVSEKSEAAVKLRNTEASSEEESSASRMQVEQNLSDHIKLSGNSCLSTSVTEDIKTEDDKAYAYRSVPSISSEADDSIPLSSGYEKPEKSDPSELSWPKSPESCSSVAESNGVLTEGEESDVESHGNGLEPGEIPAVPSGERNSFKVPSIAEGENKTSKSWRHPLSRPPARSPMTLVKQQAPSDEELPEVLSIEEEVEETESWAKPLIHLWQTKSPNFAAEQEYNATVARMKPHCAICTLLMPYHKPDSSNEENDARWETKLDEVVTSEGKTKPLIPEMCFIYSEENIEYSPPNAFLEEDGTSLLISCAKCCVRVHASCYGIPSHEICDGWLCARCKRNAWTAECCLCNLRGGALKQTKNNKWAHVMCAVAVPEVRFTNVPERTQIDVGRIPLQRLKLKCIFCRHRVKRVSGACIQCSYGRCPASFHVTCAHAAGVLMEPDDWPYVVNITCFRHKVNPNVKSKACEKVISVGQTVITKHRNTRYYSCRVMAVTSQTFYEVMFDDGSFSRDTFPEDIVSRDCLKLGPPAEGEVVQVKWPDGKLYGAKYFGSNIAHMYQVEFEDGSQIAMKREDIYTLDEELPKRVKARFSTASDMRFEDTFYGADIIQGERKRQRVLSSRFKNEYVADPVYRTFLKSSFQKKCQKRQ
The experiment in a line: KDM4C AlphaScreen assay. Format: biochemical. To be noted: AlphaScreen; full length KDM4C 0.2 nM; biotinylated H3K9Me3 peptide 3 nM; 30 minutes at room temperature. As to the method:
as §1, §2
Peptides used in all experiments were purchased from Anaspe. Full length of KDM5B and KDM4C protein were purchased from Active Motif: KDM5B (cat#31832) and KDM4C (Cat #31858). Final concentration of KDM5B and KDM4C used in the assay were 0.5 nM and 0.2 nM. Final concentration of peptides for 5B and 4C used in the assay were 3 nM.
as §3, with “AlphaScreen assays was conducted as following protocol: buffer used to make compound plate or DMSO is composed of 50 mM HEPES pH 7.4, 0.003% Tween-20; buffer used to dilute enzyme is composed of 50 mM HEPES pH 7.4, 0.003% Tween-20, 0.01% BSA, 500 μM TCEP; and buffer used to dilute the substrate is composed of 50 mM HEPES pH 7.4, 0.003% Tween-20, (NH4)2Fe(SO4)2 15 μM, alpha-ketoglutaric acid 4 μM and L-ascorbic acid 100 μM. 4 μL” for “4 μL”

Where [1] appears, read: AlphaScreen, full length KDM5B 0.5 nM, biotinylated H3K4Me3 peptide 3 nM, 25 minutes at room temperature, read-out: KDM5B (IC50).

Read-outs that look alike come from different tables or passages of the source.

T1 sequence (Q9UGL1 whole entry): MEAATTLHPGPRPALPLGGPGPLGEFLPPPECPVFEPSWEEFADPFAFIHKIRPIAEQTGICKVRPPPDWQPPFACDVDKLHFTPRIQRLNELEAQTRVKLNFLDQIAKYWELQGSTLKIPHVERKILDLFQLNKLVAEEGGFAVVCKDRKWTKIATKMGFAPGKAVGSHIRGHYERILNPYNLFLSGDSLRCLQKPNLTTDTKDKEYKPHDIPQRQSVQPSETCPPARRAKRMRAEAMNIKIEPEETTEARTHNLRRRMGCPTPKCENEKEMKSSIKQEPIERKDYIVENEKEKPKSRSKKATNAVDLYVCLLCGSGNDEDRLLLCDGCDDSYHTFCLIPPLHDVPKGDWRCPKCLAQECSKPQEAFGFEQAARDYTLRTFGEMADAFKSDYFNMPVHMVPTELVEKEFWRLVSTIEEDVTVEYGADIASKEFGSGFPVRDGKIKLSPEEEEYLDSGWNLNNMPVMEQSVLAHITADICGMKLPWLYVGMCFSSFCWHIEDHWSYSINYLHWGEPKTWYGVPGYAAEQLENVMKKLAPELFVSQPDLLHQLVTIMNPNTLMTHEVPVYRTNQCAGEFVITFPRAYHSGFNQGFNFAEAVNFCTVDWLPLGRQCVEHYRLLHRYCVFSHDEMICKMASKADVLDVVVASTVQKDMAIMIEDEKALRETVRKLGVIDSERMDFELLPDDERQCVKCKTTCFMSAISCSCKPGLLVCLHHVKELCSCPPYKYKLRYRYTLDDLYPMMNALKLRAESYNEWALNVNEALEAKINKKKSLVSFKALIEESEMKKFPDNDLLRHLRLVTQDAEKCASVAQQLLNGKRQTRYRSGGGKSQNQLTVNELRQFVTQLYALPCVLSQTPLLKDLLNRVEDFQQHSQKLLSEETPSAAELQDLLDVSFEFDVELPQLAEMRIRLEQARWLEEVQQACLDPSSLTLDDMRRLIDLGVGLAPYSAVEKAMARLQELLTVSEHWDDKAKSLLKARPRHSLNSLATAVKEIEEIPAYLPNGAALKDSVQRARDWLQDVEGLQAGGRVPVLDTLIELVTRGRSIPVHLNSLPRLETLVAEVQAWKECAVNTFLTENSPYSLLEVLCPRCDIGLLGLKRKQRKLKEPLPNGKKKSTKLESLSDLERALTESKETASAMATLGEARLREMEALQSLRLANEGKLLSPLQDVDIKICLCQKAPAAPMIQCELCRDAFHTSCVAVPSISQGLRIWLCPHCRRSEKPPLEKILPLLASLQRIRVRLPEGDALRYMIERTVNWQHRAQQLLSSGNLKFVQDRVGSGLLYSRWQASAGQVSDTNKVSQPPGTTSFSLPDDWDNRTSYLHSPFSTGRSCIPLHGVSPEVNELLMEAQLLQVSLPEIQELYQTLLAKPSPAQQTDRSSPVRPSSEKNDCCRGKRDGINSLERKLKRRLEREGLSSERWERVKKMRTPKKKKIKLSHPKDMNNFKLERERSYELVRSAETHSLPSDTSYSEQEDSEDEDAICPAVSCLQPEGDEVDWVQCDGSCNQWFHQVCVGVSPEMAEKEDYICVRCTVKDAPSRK

On to `Cc1nc(-n2ccnc2)nc(O)c1C(C)C` [Example 22, 2-(1H-imidazol-1-yl)-5-isopropyl-6-methylpyrimidin-4-ol], for which the IC50 (commonly the midpoint of a concentration-inhibition curve) against KDM5B was 16 nM; against KDM4C it was 470 nM.

Take `Cc1nc(-n2ccnc2N)nc(O)c1C(C)C` [Example 23, 2-(2-aminoimidazol-1-yl)-5-isopropyl-6-methyl-pyrimidin-4-ol]: the IC50 is 24 nM on KDM5B and 775 nM against KDM4C.

`Cc1nc(-n2cncc2CO)nc(O)c1C(C)C` [Example 24a, 2-[5-(hydroxymethyl)imidazol-1-yl]-5-isopropyl-6-methyl-pyrimidin-4-ol]: the IC50 amounted to 45 nM on KDM5B and 499 nM on KDM4C.

For the molecule `Cc1nc(-n2cnc(CO)c2)nc(O)c1C(C)C` [Example 24b, 2-[4-(hydroxymethyl)imidazol-1-yl]-5-isopropyl-6-methyl-pyrimidin-4-ol], the IC50 at KDM5B turned out to be 1260 nM; on KDM4C it was 16800 nM.

Regarding `Cc1nc(-n2ccnc2CO)nc(O)c1C(C)C` [Example 25, 2-[2-(hydroxymethyl)imidazol-1-yl]-5-isopropyl-6-methyl-pyrimidin-4-ol], the figures for the IC50 against KDM5B and on KDM4C were 48 nM and 613 nM, respectively.

Regarding `Cc1nc(-c2cn[nH]c2)nc(O)c1C(C)C` [Example 26, 5-Isopropyl-6-methyl-2-(1H-pyrazol-4-yl)pyrimidin-4-ol], the IC50 at KDM5B worked out at 1070 nM; against KDM4C it was 15800 nM.

In the case of `CC(C)c1c(O)nc(-n2ccnc2)nc1Oc1cccnc1` [Example 28a, 2-(1H-Imidazol-1-yl)-5-isopropyl-6-(pyridin-3-yloxy)pyrimidin-4-ol], the IC50 at KDM5B stood at 32 nM; against KDM4C, 1750 nM.

With `CC(C)c1c(O)nc(-n2ccnc2)nc1-n1ccnc1` [Example 28b, 2,6-di(1H-imidazol-1-yl)-5-isopropylpyrimidin-4-ol], the IC50 against KDM5B was 19 nM; against KDM4C, 1650 nM.

As for `CC(C)c1c(O)nc(-n2ccnc2)nc1OCc1cccnc1` [Example 29, 2-(1H-Imidazol-1-yl)-5-isopropyl-6-(pyridin-3-ylmethoxy)pyrimidin-4-ol], the 50% inhibitory concentration (IC50) against KDM5B turned out to be 9 nM; at KDM4C, 502 nM.

In the case of `CC(C)c1c(O)nc(-c2cncs2)nc1-c1cnn(C)c1` [Example 30, 5-isopropyl-6-(1-methyl-1H-pyrazol-4-yl)-2-(thiazol-5-yl)pyrimidin-4-ol], the IC50 on KDM5B was 345 nM; against KDM4C, 15300 nM.

On to `Cc1nc(-c2cncn2C)nc(O)c1C(C)C` [Example 31, 6-methyl-2-(1-methyl-1H-imidazol-5-yl)-5-(propan-2-yl)pyrimidin-4-ol], for which the 50% inhibitory concentration (IC50) on KDM5B worked out at 74 nM; against KDM4C it was 5680 nM.

In the case of `Oc1nc(-c2cncs2)ncc1C1CC1` [Example 32, 5-cyclopropyl-2-(thiazol-5-yl)pyrimidin-4-ol], the IC50 against KDM5B is 4420 nM; on KDM4C, 14100 nM.

As for `Oc1nc(-c2cncs2)ncc1C(F)(F)F` [Example 33, 2-(1,3-Thiazol-5-yl)-5-(trifluoromethyl)pyrimidin-4-ol], the values for the IC50 at KDM5B and against KDM4C were 2530 nM and 3640 nM, respectively.

For the molecule `CC(C)c1c(O)nc(-n2ccnc2)nc1-c1cccc(CN)c1` [Example 41, 6-[3-(Aminomethyl)phenyl]-2-(1H-imidazol-1-yl)-5-(propan-2-yl)pyrimidin-4-ol], the half-inhibitory concentration (IC50) at KDM5B (setting [1]) was found to be 3 nM; against KDM4C, 281 nM.

Turning to `CC(C)c1c(O)nc(-n2ccnc2)nc1-c1ccc(CN)cc1` [Example 42, 6-[4-(Aminomethyl)phenyl]-2-(1H-imidazol-1-yl)-5-(propan-2-yl)pyrimidin-4-ol], the IC50 against KDM5B is 4 nM; against KDM4C, 554 nM.

`CC(=O)NCc1ccc(-c2nc(-n3ccnc3)nc(O)c2C(C)C)cc1` [Example 43, N-({4-[6-Hydroxy-2-(1H-imidazol-1-yl)-5-(propan-2-yl)pyrimidin-4-yl]phenyl}-methyl)acetamide]: the half-inhibitory concentration (IC50) on KDM5B (setting [1]) is 9 nM; at KDM4C, 1110 nM.

With `CC(C)c1c(O)nc(-n2ccnc2)nc1-c1cnn(CCC#N)c1` [Example 44, 3-{4-[6-Hydroxy-2-(1H-imidazol-1-yl)-5-(propan-2-yl)pyrimidin-4-yl]-1H-pyrazol-1-yl}propanenitrile], the values for the IC50 on KDM5B and on KDM4C were 10 nM and 815 nM, respectively.

On to `CC(C)c1c(O)nc(-n2ccnc2)nc1-c1cnn(Cc2cccnc2)c1` [Example 45, 2-(1H-Imidazol-1-yl)-5-(propan-2-yl)-6-[1-(pyridin-3-ylmethyl)-1H-pyrazol-4-yl]-pyrimidin-4-ol], for which the IC50 on KDM5B (setting [1]) is 10 nM; against KDM4C, 1140 nM.

As to `CC(C)c1c(O)nc(-n2ccnc2)nc1-c1cn[nH]c1` [Example 46, 2-(1H-Imidazol-1-yl)-5-(propan-2-yl)-6-(1H-pyrazol-4-yl)pyrimidin-4-ol], the IC50 stood at 10 nM on KDM5B (setting [1]) and 1130 nM at KDM4C.

For the molecule `CC(C)c1c(O)nc(-n2ccnc2)nc1-c1cnn(C2CC2)c1` [Example 47, 6-(1-Cyclopropyl-1H-pyrazol-4-yl)-2-(1H-imidazol-1-yl)-5-(propan-2-yl)pyrimidin-4-ol], the figures for the IC50 against KDM5B and on KDM4C were 11 nM and 771 nM, respectively.

Turning to `CC(C)c1c(O)nc(-n2ccnc2)nc1-c1ccc(CNS(C)(=O)=O)cc1` [Example 48, N-({4-[6-Hydroxy-2-(1H-imidazol-1-yl)-5-(propan-2-yl)pyrimidin-4-yl]phenyl}-methyl)methanesulfonamide], the figures for the IC50 at KDM5B (setting [1]) and at KDM4C were 13 nM and 1260 nM, respectively.

For `CC(C)c1c(O)nc(-n2ccnc2)nc1-c1cnn(C2CCC2)c1` [Example 49, 6-(1-Cyclobutyl-1H-pyrazol-4-yl)-2-(1H 1H-imidazol-1-yl)-5-(propan-2-yl)pyrimidin-4-ol], the half-maximal inhibitory concentration (IC50) on KDM5B was found to be 13 nM; against KDM4C, 716 nM.

In the case of `COCCn1cc(-c2nc(-n3ccnc3)nc(O)c2C(C)C)cn1` [Example 51, 2-(1H-Imidazol-1-yl)-6-[1-(2-methoxyethyl)-1H-pyrazol-4-yl]-5-(propan-2-yl)pyrimidin-4-ol], the IC50 at KDM5B is 14 nM; at KDM4C, 1960 nM.

In the case of `CC(C)c1c(O)nc(-n2ccnc2)nc1-c1cnn(CC2CC2)c1` [Example 52, 6-[1-(Cyclopropylmethyl)-1H-pyrazol-4-yl]-2-(1H-imidazol-1-yl)-5-(propan-2-yl)pyrimidin-4-ol], the figures for the 50% inhibitory concentration (IC50) at KDM5B and on KDM4C were 14 nM and 840 nM, respectively.

The values above are taken from patent publication US20190135793A1, “HETEROCYCLIC INHIBITORS OF KDM5 FOR THE TREATMENT OF DISEASE” (Board of Regents, The University of Texas System, priority 2017, published 2019).
